pEC50: −log10 of the molar value.
Tests used:
CLK3 kinase = CLK3 kinase (Homo sapiens, UniProt P49761); test: CLK3 kinase activity assay (Z-lyte FRET); format: biochemical; conditions: Z-lyte Ser/Thr 18 peptide, 156 μM ATP, 1 h at room temperature;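 also: kinase activity read as coumarin/fluorescein emission ratio by FRET, unphosphorylated peptide as 0% and phosphorylated peptide as 100% control, values from non-linear regression of dose-response curves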
[1] = test system: Wnt pathway activity (SW480 colon carcinoma cells stably expressing the Sp5-Luc reporter); test: Wnt pathway activity screening assay (Sp5-Luc reporter gene assay); conditions: Homo sapiens, SW480, Table 4; SW480 cells stably expressing Sp5-Luc reporter, 10-point dose-response from 10 μM, 36 to 48 hours
CLK2 kinase = CLK2 kinase (Homo sapiens, UniProt P49760); test: CLK2 kinase activity assay (Z-lyte FRET); format: biochemical; conditions: Z-lyte Ser/Thr 6 peptide, 60 μM ATP, 1 h at room temperature;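 also: FRET read-out as coumarin to fluorescein emission ratio, unphosphorylated peptide as 0% and phosphorylated peptide as 100% controls, duplicate reactions, non-linear regression fit of dose-response curves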
[2] = test system: MMP-3 levels in supernatant of chondrocytes stimulated with IL1-β; test: Chondrocyte protection assay compound screening (MMP-3 LANCE Ultra); format: cell-based, human; conditions: Homo sapiens, Chondrocyte, IL1-β 10 ng/mL overnight, 11-point curves from 3 μM to 0.05 nM; for Emax: read-out: Maximum % Inhibition
Method in brief: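 Primary human chondrocytes (passage 2–5) in differentiation medium were stimulated with 10 ng/mL IL1-β for an overnight incubation at 37 °C. MMP-3 in 1:7-diluted supernatant was read by TR-FRET immunoassay against a standard curve, normalised to IL1-β-stimulated wells; EC50 and maximum % inhibition came from nonlinear regression.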

Sequence of CLK3 kinase (P49761 whole entry): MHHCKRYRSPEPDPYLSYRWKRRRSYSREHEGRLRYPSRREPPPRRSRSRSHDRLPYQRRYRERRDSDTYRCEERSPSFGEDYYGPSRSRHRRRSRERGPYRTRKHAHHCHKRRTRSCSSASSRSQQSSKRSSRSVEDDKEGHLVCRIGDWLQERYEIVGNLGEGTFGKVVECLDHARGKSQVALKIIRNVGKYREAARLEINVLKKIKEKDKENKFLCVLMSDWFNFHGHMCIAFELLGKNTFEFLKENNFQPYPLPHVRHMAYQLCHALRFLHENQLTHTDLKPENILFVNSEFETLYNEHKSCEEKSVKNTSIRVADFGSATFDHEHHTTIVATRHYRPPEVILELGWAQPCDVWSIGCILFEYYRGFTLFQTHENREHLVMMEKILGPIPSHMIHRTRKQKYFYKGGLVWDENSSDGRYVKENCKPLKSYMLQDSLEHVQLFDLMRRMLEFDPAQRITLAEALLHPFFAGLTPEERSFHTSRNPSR
Sequence of CLK2 kinase (P49760 whole entry): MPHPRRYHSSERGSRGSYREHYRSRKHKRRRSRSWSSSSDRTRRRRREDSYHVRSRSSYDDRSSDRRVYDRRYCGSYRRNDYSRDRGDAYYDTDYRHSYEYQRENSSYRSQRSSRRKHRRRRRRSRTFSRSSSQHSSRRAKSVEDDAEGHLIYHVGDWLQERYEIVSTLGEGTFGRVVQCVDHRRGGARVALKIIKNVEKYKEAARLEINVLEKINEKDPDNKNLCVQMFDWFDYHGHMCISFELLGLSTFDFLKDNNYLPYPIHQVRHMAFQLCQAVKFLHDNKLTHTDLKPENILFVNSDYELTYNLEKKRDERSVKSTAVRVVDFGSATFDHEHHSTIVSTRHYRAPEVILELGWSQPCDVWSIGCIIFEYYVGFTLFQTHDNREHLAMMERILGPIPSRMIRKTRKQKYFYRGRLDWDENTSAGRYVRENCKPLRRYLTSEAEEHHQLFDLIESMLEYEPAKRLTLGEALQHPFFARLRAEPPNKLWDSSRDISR

Row | Structure (SMILES) | pEC50 (CLK3 kinase) | pEC50 [1] | pEC50 (CLK2 kinase) | pEC50 [2] | Emax [2]
1 | CN1CCC(Nc2ccc(NC(=O)c3n[nH]c4cc(F)c(-c5cnn(C)c5)cc34)cn2)CC1 [compound 109] | 7.10 | 6.64 | 9.00 | 5.94 | 100%
2 | CN1CCC(Oc2ccc(NC(=O)c3n[nH]c4cc(F)c(-c5cnn(C)c5)cc34)cn2)CC1 [compound 110] | 7.32 | 6.92 | 9.00 | 5.97 | 87.2%
3 | CN1CCC(Oc2ncc(NC(=O)c3n[nH]c4cc(F)c(-c5cnn(C)c5)cc34)cc2F)CC1 [compound 111] | 7.05 | 5.94 | 9.00 | 7.90 | 76.2%
4 | Cn1cc(-c2cc3c(C(=O)Nc4ccc5c(c4)CNC5)n[nH]c3cc2F)cn1 [compound 112] | 6.94 | 6.10 | 9.00 | 5.92 | 88.3%
5 | O=C(Nc1ccc(CN2CCCC2)cc1)c1n[nH]c2ccc(-c3cnn(C4CC4)c3)cc12 [compound 113] | 6.88 | 6.35 | 9.00 | ≤ 5.52 | 57%
6 | Cc1ncc(NC(=O)c2n[nH]c3ccc(-c4cnn(C5CCN(C)CC5)c4)cc23)s1 [compound 114] | 7.32 | 7.02 | 9.00 | ≤ 5.52 | 62.8%
7 | O=C(Nc1ccc(OC(F)F)cc1)c1n[nH]c2ccc(-c3cnc4n3CCNC4)cc12 [compound 116] | 6.41 | 6.16 | 9.00 | 7.89 | 61.2%
8 | Cc1cc(-c2ccc3[nH]nc(C(=O)Nc4ccc(OC5CCN(C)CC5)cc4)c3c2)sn1 [compound 117] | 6.83 | 6.19 | 8.70 | 7.35 | 94.4%
9 | O=C(Nc1cccnc1)c1n[nH]c2cnc(-c3cncc(CN4CCCCC4)c3)cc12 [compound 118] | 6.22 | 6.07 | 8.10 | 6.86 | 21.1%
10 | CC(C)CC(=O)Nc1cncc(-c2cnc3[nH]nc(-c4nc5c(-c6cccc(F)c6)cncc5[nH]4)c3c2)c1 [compound 125] | 7.24 | 9.22 | 9.00 | ≤ 5.52 | 
11 | CCN(C)Cc1cncc(-c2cnc3[nH]nc(-c4nc5c(-c6cccc(F)c6)cncc5[nH]4)c3c2)c1 [compound 140] | 7.66 | 6.19 | 8.70 | 9.10 | 76.4%
12 | Fc1cccc(-c2cncc3[nH]c(-c4n[nH]c5cnc(-c6cncc(OC7CCNCC7)c6)cc45)nc23)c1 [compound 152] | 7.48 | < 5.00 | 9.00 | 5.77 | 31.8%
13 | CC(C)(C)C(=O)Nc1cncc(-c2ccc3[nH]nc(-c4nc5c(-c6cccnc6)cncc5[nH]4)c3c2)c1 [compound 188] | 7.64 | 7.07 | 8.52 | 5.96 | 100%
14 | O=C(Nc1cncc(-c2ccc3[nH]nc(-c4nc5c(-c6cccnc6)cncc5[nH]4)c3c2)c1)c1ccccc1 [compound 192] | 7.77 | < 5.00 | 8.30 | 8.72 | 95.5%
15 | CCNCc1cncc(-c2ccc3[nH]nc(-c4nc5c(-c6ccccn6)nccc5[nH]4)c3c2)c1 [compound 199] | 6.87 | 5.67 | 8.70 | 8.62 | 80.9%
16 | NC1CN(c2cncc(-c3ccc4[nH]nc(-c5nc6ccncc6[nH]5)c4c3)c2)C1 [compound 205] | 6.74 | 6.46 | 9.00 | 7.68 | 61.5%
17 | Cc1cn(-c2cncc3[nH]c(-c4n[nH]c5ccc(-c6cncc(NC(=O)CC(C)C)c6)cc45)nc23)cn1 [compound 225] | 7.80 | 5.34 | 8.70 | 6.07 | 89.2%
18 | FC1(F)CCN(Cc2cncc(-c3cnc4[nH]nc(-c5nc6c(-c7ccoc7)nccc6[nH]5)c4c3)c2)C1 [compound 241] | 7.47 | 6.79 | 8.40 | 10.00 | 87.1%
19 | O=C(CC1CCNCC1)Nc1cncc(-c2ccc3[nH]nc(-c4nc5c(-c6ccsc6)nccc5[nH]4)c3n2)c1 [compound 248] | 7.18 | < 5.00 | 9.00 | ≤ 5.52 | 40.7%
20 | Fc1ccc(-c2cncc3[nH]c(-c4n[nH]c5cnc(-c6cncc(CN7CCCC7)c6)cc45)nc23)s1 [compound 264] | 7.46 | 6.33 | 8.70 | ≤ 5.52 | 81%

Row | Structure (SMILES) | pEC50 (CLK3 kinase) | pEC50 [1] | pEC50 (CLK2 kinase) | pEC50 [2] | Emax [2]
21 | Cc1ncc(-c2ccc3[nH]nc(-c4nc5c(-c6cc(F)cc(NCCN(C)C)c6)ccnc5[nH]4)c3n2)n1C [compound 287] | 7.36 | 6.21 | 8.40 | 7.89 | 74.2%
22 | Cc1ccncc1-c1cc2c(-c3nc4c(-c5cc(F)cc(CNS(C)(=O)=O)c5)cncc4[nH]3)n[nH]c2cn1 [compound 290] | 7.77 | 7.02 | 8.70 | 6.22 | 
23 | CN1CCC(Oc2ccc3[nH]c(-c4n[nH]c5ccc(-c6cnn(C)c6)cc45)nc3c2)CC1 [compound 299] | 7.54 | 7.74 | 9.00 | 6.77 | 100%
24 | O=C(Nc1cncc(-c2ccc3[nH]nc(-c4cc5cnccc5[nH]4)c3c2)c1)C1CCCCC1 [compound 431] | 7.74 | 6.55 | 9.00 | 8.17 | 100%
25 | c1cnc2cc(-c3n[nH]c4ccc(-c5cncc(CN6CCCCC6)c5)cc34)[nH]c2c1 [compound 449] | 7.72 | 6.78 | 8.70 | 6.50 | 100%
26 | CC#CC(=O)Nc1cc2cc(-c3cnn(C)c3)ccc2cn1 [compound 539] | 6.91 | 6.29 | 8.15 | 7.48 | 42.3%
27 | CN1CCC(Nc2cc(C(=O)Nc3cc4cc(-c5cnn(C)c5)ccc4cn3)ccn2)CC1 [compound 555] | 7.68 | 7.18 | 9.00 | ≤ 5.52 | 85.1%
28 | CC(C)OC(=O)N1CCC(n2cc(C(=O)Nc3cc4cc(-c5cnn(C)c5)ccc4cn3)cn2)CC1 [compound 562] | 7.70 | 7.26 | 9.00 | 7.06 | 34.8%
29 | CC(C)N1CCC(c2nc(C(=O)Nc3cc4cc(-c5cnn(C)c5)ccc4cn3)co2)CC1 [compound 563] | 7.59 | 7.10 | 8.30 | 7.24 | 72.4%
30 | CN(C)C1CN(c2ncc(C(=O)Nc3cc4cc(-c5cnn(C)c5)ccc4cn3)s2)C1 [compound 564] | 7.43 | 5.88 | 8.70 | 7.15 | 0%
31 | CO[C@H]1CC[C@H](C(=O)Nc2cc3cc(-c4cnn(C)c4CN4CCCCC4)ccc3cn2)CC1 [compound 569] | 6.79 | 6.33 | 8.10 | ≤ 5.52 | 0.2%
32 | Cn1ncc(-c2ccc3cnc(NC(=O)[C@H]4CC[C@H](CO)CC4)cc3c2)c1CN1CCCCC1 [compound 570] | 6.84 | 6.23 | 8.05 | ≤ 5.52 | 80.6%
33 | Cn1ncc(-c2ccc3cnc(NC(=O)C4CCN(C(=O)c5ccccc5)CC4)cc3c2)c1CN1CCCCC1 [compound 571] | 6.50 | 6.15 | 8.15 | 7.46 | 51%
34 | O=C(Nc1cc2cc(-c3cnn4c3CCNC4)ccc2cn1)c1ccc(OC(F)F)cc1 [compound 574] | 6.70 | 6.43 | 8.70 | 5.72 | 59.5%
35 | CC(C)N1CCC(n2cc(C(=O)Nc3cc4cc(-c5cn(C)nn5)ccc4cn3)cn2)CC1 [compound 579] | 7.72 | 7.49 | 8.70 | 6.31 | 91%
36 | Cc1nnc(C(=O)Nc2cc3cc(-c4cncn4C)ccc3cn2)s1 [compound 584] | 6.75 | 5.72 | 8.22 | 7.15 | 38.6%
37 | CC(C)n1cc(C(=O)Nc2cc3cc(-c4cncn4C)ccc3cn2)cn1 [compound 585] | 7.89 | 7.46 | 9.00 | 5.84 | 77.9%
38 | CC(C)n1cc(C(=O)Nc2cc3cc(-c4cncn4C(C)C)ccc3cn2)cn1 [compound 586] | 7.64 | 6.94 | 8.15 | 8.34 | 41.7%
39 | Cc1ncc(-c2ccc3cnc(NC(=O)C4(F)CC4)cc3c2)n1C [compound 587] | 6.17 | 5.66 | 8.10 | 7.73 | 
40 | Cc1ncc(C(=O)Nc2cc3cc(-c4cnc(C)n4C)ccc3cn2)s1 [compound 589] | 7.51 | 6.99 | 8.70 | ≤ 5.52 | 43.5%
